ChEMBL document CHEMBL1201862, “PubChem BioAssay data set” (2004)
Activity calls are given as the source filed them.

Experiments:
[1] = target: Voltage-gated inwardly rectifying potassium channel KCNH2 (Homo sapiens, UniProt Q12809); conditions: Potency;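 further: confirmatory quantitative high-throughput screen measuring inhibition of hERG channel activity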
[2] = target: T1, Apoptotic protease-activating factor 1 (Homo sapiens, UniProt O14727); test: activation of Apaf-1 mediated apoptosis – fluorescent, uHTS hits, dose response (AID 588554); format: functional
T1 sequence (O14727 whole entry): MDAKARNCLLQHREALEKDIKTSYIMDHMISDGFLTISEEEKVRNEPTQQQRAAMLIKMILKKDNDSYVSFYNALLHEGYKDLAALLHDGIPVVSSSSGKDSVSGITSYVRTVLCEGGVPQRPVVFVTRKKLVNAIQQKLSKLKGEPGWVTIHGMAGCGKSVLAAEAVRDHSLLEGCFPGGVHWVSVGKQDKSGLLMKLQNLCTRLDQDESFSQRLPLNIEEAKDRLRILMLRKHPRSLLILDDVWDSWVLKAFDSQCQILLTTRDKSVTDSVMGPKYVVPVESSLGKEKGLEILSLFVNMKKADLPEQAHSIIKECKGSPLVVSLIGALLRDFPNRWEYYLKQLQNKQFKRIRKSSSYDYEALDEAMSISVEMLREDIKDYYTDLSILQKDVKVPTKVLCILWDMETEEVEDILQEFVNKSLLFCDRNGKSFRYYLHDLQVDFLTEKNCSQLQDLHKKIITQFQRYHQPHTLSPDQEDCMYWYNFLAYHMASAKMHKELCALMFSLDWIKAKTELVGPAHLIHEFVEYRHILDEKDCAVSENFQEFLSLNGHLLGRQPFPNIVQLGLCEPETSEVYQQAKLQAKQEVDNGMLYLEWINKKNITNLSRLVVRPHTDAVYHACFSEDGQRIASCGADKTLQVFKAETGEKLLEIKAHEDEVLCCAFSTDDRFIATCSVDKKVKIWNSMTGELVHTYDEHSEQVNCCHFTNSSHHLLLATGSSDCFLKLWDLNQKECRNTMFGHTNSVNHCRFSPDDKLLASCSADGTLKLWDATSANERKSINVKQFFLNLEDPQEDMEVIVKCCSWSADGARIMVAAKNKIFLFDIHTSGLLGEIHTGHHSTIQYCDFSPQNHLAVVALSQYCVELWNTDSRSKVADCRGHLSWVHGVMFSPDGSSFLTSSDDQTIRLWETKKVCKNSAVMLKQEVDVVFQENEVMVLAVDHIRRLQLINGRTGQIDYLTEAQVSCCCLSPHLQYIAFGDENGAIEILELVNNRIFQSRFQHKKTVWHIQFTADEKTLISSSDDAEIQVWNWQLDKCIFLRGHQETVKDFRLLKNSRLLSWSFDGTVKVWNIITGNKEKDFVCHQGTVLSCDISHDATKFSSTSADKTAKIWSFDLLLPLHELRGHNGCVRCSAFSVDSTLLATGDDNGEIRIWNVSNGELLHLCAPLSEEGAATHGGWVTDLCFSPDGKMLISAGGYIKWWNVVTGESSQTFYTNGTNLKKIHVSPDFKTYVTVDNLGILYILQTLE

[3] = target: FAD-linked sulfhydryl oxidase ALR (Homo sapiens, UniProt P55789); test: ALR-catalysed DTT oxidation blockers – biochemical, H2O2 detection, luminescence, cherry-pick, dose response (AID 493248)
[4] = THP-1 cell cytotoxicity, dose response, cytotoxicity control for non-replicating M. tuberculosis project (AID 489025); format: functional
[5] = reduction of Shn3 3'UTR-driven luciferase in osteoblasts – cell-based, Clone20 osteoblasts, firefly luciferase, cherry-picked, dose response (AID 624132); format: functional;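 further: firefly luciferase luminescence from reporter carrying the Shn3 3'UTR in osteoblasts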
[6] = target: T2, Microphthalmia-associated transcription factor (Homo sapiens, UniProt O75030); test: reducers of TRPM1 reporter luminescence, concentration series – cell-based, SK-MEL-5, cherry-picked, set 3, MITF inhibitor project, dose response (AID 493073); format: functional;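 further: SK-MEL-5 melanoma cells with luciferase driven by the MITF target TRPM1 promoter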
T2 sequence (O75030 whole entry): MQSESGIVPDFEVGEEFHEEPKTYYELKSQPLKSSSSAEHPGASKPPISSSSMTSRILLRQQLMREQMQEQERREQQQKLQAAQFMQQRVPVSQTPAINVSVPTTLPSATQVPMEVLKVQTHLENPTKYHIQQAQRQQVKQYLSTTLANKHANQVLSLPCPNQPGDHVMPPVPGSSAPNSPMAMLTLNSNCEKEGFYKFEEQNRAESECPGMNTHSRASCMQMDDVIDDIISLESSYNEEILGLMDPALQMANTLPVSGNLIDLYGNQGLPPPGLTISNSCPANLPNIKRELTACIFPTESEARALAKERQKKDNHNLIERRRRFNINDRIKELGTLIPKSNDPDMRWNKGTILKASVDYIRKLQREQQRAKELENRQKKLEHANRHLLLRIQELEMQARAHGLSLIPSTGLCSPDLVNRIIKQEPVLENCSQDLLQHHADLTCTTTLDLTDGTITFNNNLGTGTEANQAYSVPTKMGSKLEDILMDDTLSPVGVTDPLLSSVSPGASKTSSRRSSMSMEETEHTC

[7] = tested on: A-375; test: MITF: Counter assay: A375 proliferation Measured in Cell-Based System Using Plate Reader - 2084-03_Inhibitor_Dose_DryPowder_Activity. [Related pubchem assays (depositor defined):AID488944]; format: functional; conditions: Homo sapiens
[8] = cells; format: functional
[9] = Luminescence Cell-Based Dose Retest to Confirm Inhibitors of Cancer Stem Cells. [Related pubchem assays (depositor defined):AID2717, AID2721]; format: functional; conditions: Homo sapiens
[10] = target: Eukaryotic translation initiation factor 4E (Mus musculus, UniProt P63073); test: blockers of eIF4G binding by eIF4E – biochemical, TR-FRET, dose response (AID 855); format: functional;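 further: potency for disrupting eIF4E binding to eIF4GI seen as loss of FRET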
[11] = non-specific 3'UTR reporter inhibition in Clone20-Shn3RL – cell-based, Renilla luciferase, cherry-picked, counter-screen for Shn3 inhibitor project, dose response (AID 624133); format: functional
[12] = loss of viability in HepG2 cells – cell-based, CellTiter-Glo, cherry-picked, cytotoxicity control for Shn3 inhibitor project, dose response (AID 624134); format: functional
[13] = tested on: A-375; test: proliferation inhibition in MITF-low A375 cells – cell-based, cherry-pick samples, set 2, counter-screen for MITF modulator project, dose response (AID 540335); format: functional; conditions: Homo sapiens
[14] = target: Beta-galactosidase (Escherichia coli, UniProt Q8VNN2); test: detection-enzyme interference by beta-gal modulators – biochemical, E. coli enzyme, set 3, artefact control for CCR6 antagonist project, dose response (AID 504712); format: functional
[15] = tested on: HeLa; test: ATP-based viability loss in HeLa cells – cell-based, CellTiter-Glo luminescence, cherry-pick samples, cytotoxicity control for MITF activator project, dose response (AID 540259); format: functional; conditions: Homo sapiens
[16] = target: Serine/threonine-protein phosphatase (Candida dubliniensis (strain CD36 / CBS 7987 / NCPF 3949 / NRRLY-17841) (Yeast), UniProt B9W6M3); test: blockers of CaCl2-induced CDRE-lacZ signaling – S. cerevisiae, luminescence, secondary, dose response (AID 2388); format: functional, cell-based;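 further: yeast reporter cells carrying a calcineurin-responsive lacZ construct stimulated with calcium chloride; luminescent beta-galactosidase reporter signal in whole cells rather than isolated phosphatase activity; potency for inhibition where a drop in reporter signal means calcineurin blockade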
[17] = fluconazole-exposed Candida albicans growth modulators – fluorescence, retest, confirmation (AID 2467); format: functional, cell-based
[18] = NIH-3T3 fibroblast cytotoxicity, dose response, cytotoxicity control, cell-based, fluorescence, Alamar Blue, secondary assay (AID 2327); format: functional;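 further: NIH-3T3 mouse fibroblasts cultured with fluconazole at 8 µg/mL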
[19] = target: ATP-dependent molecular chaperone HSP82 (Candida albicans (strain WO-1) (Yeast), UniProt C4YTQ8); test: steroid-induced GRE reporter decrease in yeast – S. cerevisiae, luminescence, Hsp90 inhibitor project, dose response (AID 2400); format: functional, cell-based;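 further: beta-galactosidase luminescence from glucocorticoid response element reporter as proxy for Hsp90 function; inhibitor potency where signal loss means Hsp90 inhibition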
[20] = target: Large T antigen (Simian virus 40, UniProt P03070); format: functional, Betapolyomavirus macacae;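 further: Confirmatory-stage PubChem screen for compounds that inhibit SV40 T antigen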
[21] = target: DNA topoisomerase (Yersinia pestis, UniProt A0A2S9PM60); test: Yersinia topoisomerase I cleavage product accumulation – biochemical, cherry-pick, dose response (AID 588525)
[22] = target: T3, Endoribonuclease toxin MazF (Escherichia coli K-12, UniProt P0AE70); test: substrate-only fluorescence increase artefacts – biochemical, single-stranded RNase substrate, counter-screen for MazEF activator project, dose response (AID 588502); format: functional
[23] = target: T3, Endoribonuclease toxin MazF; test: activation of MazEF endoribonuclease cleavage – biochemical, fluorescence, single-stranded RNA substrate, uHTS hits, dose response (AID 588481); format: functional
[24] = target: Beta Lactamase (Pseudomonas aeruginosa, UniProt Q932Y6); test: BLA reporter interference, concentration series – BLA reporter cells, FRET fluorescence, artefact control for TLR9-MyD88 binding inhibitor project, dose response (AID 588341); format: cell-based;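 further: cell based assay in CHO-K1 cells stably expressing beta-lactamase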
[25] = tested on: CHO; test: CHO cell viability loss, potency – luminescence, cytotoxicity control for TLR9-MyD88 binding inhibitor project, dose response (AID 588339); format: functional, cell-based, hamster; conditions: Cricetulus griseus;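 further: CHO cells stably coexpressing TLR9 and MyD88 fusions from primary screen; compound exposure lasted 48 hours before viability readout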
[26] = target: Luciferin 4-monooxygenase (Photuris pensylvanica, UniProt Q27757); test: inhibition of Cell Titer Glo luciferase signal – biochemical, luminescence, cherry-picks, counter-screen for HSF-1 reporter inhibitor project, dose response (AID 588847)
[27] = tested on: Candida albicans; test: resistant Candida growth with fluconazole co-treatment – CaCi-8 strain, Alamar Blue, dry powder, set 2, dose response (AID 488909); format: functional, organism-based
[28] = tested on: Candida albicans; test: C. albicans growth inhibition with fluconazole – CaCi-2 strain, Alamar Blue, dry powder, set 4, dose response (AID 488943); format: functional, organism-based
[29] = tested on: Candida albicans; test: fluconazole-resistant Candida strain growth inhibitors – CaCi-8 strain, dry powder, set 4, dose response (AID 488950); format: functional, organism-based
[30] = tested on: Candida albicans; test: Candida growth reduction in fluconazole presence – CaCi-2 strain, Alamar Blue, dry powder, set 2, antifungal resistance reversal project, dose response (AID 488930); format: functional, organism-based
[31] = target: Cyclin-dependent kinase 5/CDK5 activator 1 (Homo sapiens, UniProt Q00535); test: human CDK5 activity blockade – biochemical, microfluidic mobility shift, dry powder, selectivity assay for GSK-3 alpha inhibitor project, dose response (AID 588430)
[32] = target: Glycogen synthase kinase-3 alpha (Homo sapiens, UniProt P49840); test: Inhibition of Human GSK-3 alpha Activity Measured in Biochemical System Using Microfluidics - 2063-06_Inhibitor_Dose_DryPowder_Activity_Set2. [Related pubchem assays (depositor defined):AID2709]
[33] = target: Glycogen synthase kinase-3 beta (Homo sapiens, UniProt P49841); test: Inhibition of Human GSK-3 beta Activity Measured in Biochemical System Using Microfluidics - 2063-05_Inhibitor_Dose_DryPowder_Activity_Set2. [Related pubchem assays (depositor defined):AID2709]
[34] = tested on: Jurkat; test: SAR Analysis of small molecule inhibitors of […] specific antigen receptor-induced NF-kB activation in a Jurkat cell line using a luminescence assay - Set 3. [Related pubchem assays (depositor defined):AID435022, AID435025, AID465]; format: functional, cell-based; conditions: Homo sapiens
[35] = tested on: HEK293; test: HEK293T cell viability loss, resazurin readout – resazurin fluorescence, cytotoxicity control for NF-kB activator project, SAR follow-up (AID 493251); format: functional, cell-based; conditions: Homo sapiens
[36] = tested on: HEK293; test: SAR Analysis of small molecule inhibitors of B-cell specific antigen receptor-induced NF-kB activation in a HEK-293T cell line using a luminescence assay - Set 2. [Related pubchem assays (depositor defined):AID435022, AID435025, AID489021]; format: functional, cell-based; conditions: Homo sapiens

T3 sequence (P0AE70 whole entry): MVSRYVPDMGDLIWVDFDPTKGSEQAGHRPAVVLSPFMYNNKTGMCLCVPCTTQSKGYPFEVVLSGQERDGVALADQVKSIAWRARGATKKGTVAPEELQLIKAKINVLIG
Chain of Eukaryotic translation initiation factor 4E (P63073 whole entry): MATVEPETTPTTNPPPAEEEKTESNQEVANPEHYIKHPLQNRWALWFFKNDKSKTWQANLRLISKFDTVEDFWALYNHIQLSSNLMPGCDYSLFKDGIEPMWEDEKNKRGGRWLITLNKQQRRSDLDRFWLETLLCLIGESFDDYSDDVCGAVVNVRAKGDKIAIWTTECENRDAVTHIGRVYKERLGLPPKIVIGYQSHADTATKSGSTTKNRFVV
Chain of Glycogen synthase kinase-3 alpha (P49840 whole entry): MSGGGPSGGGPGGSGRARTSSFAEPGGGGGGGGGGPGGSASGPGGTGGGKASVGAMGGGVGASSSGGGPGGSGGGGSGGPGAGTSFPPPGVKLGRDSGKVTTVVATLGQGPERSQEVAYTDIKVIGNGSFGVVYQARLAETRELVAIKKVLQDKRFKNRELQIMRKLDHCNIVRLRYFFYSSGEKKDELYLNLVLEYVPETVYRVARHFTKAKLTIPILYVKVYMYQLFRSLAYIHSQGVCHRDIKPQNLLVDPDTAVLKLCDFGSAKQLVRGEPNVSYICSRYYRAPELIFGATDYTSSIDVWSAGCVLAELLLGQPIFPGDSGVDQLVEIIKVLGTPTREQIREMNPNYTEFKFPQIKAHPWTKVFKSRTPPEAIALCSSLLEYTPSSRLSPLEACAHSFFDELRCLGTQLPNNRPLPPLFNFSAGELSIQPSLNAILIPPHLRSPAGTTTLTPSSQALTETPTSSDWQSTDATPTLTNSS
Chain of DNA topoisomerase (A0A2S9PM60 whole entry): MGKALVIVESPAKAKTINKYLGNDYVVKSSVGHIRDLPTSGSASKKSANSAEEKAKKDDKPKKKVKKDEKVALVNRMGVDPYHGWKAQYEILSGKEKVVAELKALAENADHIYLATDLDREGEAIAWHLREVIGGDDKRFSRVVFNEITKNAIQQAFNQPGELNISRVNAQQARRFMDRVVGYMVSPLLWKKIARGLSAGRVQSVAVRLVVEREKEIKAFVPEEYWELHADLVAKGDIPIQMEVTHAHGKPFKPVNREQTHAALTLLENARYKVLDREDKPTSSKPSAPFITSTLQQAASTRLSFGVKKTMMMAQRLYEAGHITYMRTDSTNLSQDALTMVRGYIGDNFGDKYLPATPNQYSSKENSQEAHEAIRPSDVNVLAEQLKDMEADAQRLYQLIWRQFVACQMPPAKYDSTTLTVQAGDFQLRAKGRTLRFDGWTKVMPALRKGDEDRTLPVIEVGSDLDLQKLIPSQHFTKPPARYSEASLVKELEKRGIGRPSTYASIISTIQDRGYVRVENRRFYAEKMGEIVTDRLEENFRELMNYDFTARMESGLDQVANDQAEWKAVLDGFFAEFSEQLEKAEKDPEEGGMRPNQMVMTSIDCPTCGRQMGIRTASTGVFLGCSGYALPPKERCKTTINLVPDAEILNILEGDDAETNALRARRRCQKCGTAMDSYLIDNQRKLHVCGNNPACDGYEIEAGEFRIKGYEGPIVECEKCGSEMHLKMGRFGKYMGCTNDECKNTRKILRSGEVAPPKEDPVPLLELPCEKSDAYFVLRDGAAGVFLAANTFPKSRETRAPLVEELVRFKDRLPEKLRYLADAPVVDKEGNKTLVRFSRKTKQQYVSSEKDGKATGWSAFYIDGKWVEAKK
Chain of Beta-galactosidase (Q8VNN2 whole entry): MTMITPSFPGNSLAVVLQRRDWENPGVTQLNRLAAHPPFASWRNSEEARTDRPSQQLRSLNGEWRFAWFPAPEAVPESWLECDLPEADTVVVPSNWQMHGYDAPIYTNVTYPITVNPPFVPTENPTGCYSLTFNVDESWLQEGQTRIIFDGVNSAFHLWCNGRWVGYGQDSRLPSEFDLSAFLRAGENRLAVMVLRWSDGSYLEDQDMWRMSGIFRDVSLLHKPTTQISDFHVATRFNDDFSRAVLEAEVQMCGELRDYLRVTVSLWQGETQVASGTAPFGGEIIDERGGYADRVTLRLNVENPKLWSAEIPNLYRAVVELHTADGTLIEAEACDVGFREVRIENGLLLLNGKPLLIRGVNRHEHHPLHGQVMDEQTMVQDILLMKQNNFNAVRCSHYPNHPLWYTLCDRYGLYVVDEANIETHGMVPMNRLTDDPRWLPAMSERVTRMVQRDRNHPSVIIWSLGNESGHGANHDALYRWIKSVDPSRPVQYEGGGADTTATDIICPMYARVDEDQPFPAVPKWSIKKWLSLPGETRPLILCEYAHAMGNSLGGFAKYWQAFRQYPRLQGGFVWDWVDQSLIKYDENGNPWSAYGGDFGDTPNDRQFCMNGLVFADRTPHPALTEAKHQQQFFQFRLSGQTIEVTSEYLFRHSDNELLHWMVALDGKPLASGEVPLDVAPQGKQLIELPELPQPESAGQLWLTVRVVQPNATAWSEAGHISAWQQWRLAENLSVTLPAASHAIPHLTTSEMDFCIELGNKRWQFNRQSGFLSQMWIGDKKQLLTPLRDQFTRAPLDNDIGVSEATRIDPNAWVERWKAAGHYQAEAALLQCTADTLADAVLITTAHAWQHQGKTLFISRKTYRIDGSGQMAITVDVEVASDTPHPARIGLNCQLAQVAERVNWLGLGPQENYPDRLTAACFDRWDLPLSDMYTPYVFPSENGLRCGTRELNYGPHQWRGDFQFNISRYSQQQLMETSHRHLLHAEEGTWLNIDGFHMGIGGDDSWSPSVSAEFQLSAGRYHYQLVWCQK
Chain of Voltage-gated inwardly rectifying potassium channel KCNH2 (Q12809 whole entry): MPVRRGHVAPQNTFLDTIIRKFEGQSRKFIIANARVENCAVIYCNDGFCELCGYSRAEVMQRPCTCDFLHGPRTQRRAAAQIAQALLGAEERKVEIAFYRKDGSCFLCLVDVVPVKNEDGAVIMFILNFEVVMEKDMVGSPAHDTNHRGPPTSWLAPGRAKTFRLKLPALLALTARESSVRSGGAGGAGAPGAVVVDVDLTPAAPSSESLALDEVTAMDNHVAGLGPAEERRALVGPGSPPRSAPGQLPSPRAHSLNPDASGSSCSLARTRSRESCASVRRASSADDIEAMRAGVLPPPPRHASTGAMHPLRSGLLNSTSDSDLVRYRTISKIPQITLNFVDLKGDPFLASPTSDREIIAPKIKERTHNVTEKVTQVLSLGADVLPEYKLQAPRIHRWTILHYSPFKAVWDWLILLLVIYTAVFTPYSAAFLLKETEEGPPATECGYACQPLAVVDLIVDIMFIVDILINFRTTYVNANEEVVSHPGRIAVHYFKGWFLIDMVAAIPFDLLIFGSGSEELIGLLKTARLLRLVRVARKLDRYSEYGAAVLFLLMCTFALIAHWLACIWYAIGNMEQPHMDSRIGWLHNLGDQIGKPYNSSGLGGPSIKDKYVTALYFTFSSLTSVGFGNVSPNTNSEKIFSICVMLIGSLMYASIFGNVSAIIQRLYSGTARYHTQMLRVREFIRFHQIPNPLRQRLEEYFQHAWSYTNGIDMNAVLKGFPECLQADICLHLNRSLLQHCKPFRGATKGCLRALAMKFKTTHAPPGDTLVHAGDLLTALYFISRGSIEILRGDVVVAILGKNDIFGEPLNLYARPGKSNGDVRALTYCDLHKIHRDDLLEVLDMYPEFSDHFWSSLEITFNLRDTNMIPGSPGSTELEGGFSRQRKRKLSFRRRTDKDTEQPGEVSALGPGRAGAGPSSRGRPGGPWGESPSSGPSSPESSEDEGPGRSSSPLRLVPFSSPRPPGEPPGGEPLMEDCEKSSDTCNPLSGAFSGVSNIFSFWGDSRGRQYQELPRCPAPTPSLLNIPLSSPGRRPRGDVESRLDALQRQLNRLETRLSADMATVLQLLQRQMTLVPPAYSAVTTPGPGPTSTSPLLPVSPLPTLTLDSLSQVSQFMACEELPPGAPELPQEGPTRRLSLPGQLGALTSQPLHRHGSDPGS
Chain of Beta Lactamase (Q932Y6 whole entry, the tested form may be a part): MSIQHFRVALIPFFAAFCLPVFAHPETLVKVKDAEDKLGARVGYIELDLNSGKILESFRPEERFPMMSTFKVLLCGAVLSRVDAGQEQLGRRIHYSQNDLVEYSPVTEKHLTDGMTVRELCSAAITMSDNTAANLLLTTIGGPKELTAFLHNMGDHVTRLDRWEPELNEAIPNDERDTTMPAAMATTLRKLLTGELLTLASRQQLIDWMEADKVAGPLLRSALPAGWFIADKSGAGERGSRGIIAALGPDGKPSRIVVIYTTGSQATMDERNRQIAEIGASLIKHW
Chain of Large T antigen (P03070 whole entry): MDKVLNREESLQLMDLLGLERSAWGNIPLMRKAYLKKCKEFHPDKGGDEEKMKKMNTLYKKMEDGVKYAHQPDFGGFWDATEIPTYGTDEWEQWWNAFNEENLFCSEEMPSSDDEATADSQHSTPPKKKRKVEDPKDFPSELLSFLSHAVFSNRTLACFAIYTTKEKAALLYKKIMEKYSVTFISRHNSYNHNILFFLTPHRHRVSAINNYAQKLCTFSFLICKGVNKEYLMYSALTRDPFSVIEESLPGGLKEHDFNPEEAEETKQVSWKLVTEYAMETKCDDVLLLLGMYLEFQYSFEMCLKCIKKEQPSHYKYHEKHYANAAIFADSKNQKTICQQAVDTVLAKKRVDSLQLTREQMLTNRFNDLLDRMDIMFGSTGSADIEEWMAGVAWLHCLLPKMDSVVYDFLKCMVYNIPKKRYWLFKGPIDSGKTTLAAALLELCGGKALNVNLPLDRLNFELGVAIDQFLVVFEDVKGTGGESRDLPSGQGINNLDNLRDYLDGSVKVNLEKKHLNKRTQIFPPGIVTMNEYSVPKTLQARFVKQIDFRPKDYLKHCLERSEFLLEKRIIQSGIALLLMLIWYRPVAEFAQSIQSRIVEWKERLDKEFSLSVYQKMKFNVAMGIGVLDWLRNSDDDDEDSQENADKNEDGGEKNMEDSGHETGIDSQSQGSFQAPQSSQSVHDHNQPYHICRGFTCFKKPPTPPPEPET

For `COc1ccccc1N1CCN(CCN(C(=O)C2CCCCC2)c2ccccn2)CC1`, the AC50 [1] was 31.6 µM (inconclusive).

With `N#CCCn1cc(C(CC(=O)c2ccc(Br)cc2)C(=O)O)c2ccccc21` (stereo unspecified) the EC50 [2] was 22.9 µM (active) and the AC50 [3] was > 100 µM (inactive).

With `Cc1ccc(Oc2c(C(N)=O)cc([N+](=O)[O-])cc2[N+](=O)[O-])cc1` the CC50 [4] was 22.4 µM (active), the AC50 [5] was 11.9 µM (active) and the AC50 [6] was 3.68 µM (active). The AC50 [7] was > 11 µM (active), the IC50 [8] was 1.31 µM (active) and the AC50 [9] was 2.99 µM (active). The IC50 [10] was > 64 µM (inactive), the AC50 [11] was 4.73 µM (active) and the AC50 [12] was 25.2 µM (active). For the same molecule, the AC50 [13] was > 11 µM (active) and the IC50 [14] was > 66.6 µM (inactive).

For `Cc1ccc(C(=O)O/N=C(\N)c2ccc(Br)cc2)cc1`, the AC50 [15] was 48.5 µM (active).

For `O=Nc1c(-c2cccc([N+](=O)[O-])c2)nc2ncccn12`, the EC50 [16] was 0.828 µM (active), the EC50 [17] was 1.11 µM (active) and the EC50 [18] was > 160 µM (inconclusive). For the same molecule, the EC50 [19] was 0.826 µM (active) and the IC50 [20] was 32.5 µM (active).

For `Cc1ccc(S(=O)(=O)N=C(N)Nc2nc(C)c3cc(C)ccc3n2)cc1`, the AC50 [21] was 14.2 µM (active).

With `COc1ccc(OC)c(/C=C/c2nc3ccccc3nc2O)c1` the EC50 [22] was > 99 µM (inactive), the EC50 [23] was > 99 µM (inactive) and the IC50 [24] was 8.5 µM (active). The IC50 [25] was 28.4 µM (inactive).

For `CC12CCC(=O)C=C1CCC1C2C(O)CC2(C)C1CCC2(O)C(=O)CO` (stereo unspecified), the AC50 [26] was > 52 µM (inactive).

With `O=C(C1CCCC1)N1CCN(c2ccnc3cc(Cl)ccc23)CC1` the AC50 [27] was 2.01 µM (active), the AC50 [28] was 2.08 µM (active) and the AC50 [29] was 1.71 µM (active). The AC50 [30] was 0.566 µM (active).

With `COc1cc(/C=N/Nc2ccc([N+](=O)[O-])cn2)cc(OC)c1O` the AC50 [31] was 1.55 µM (active), the AC50 [32] was 0.367 µM (active) and the AC50 [33] was 0.095 µM (active).

For `CCOCCCNC(=O)CSCc1nc(-c2ccc(OCC)cc2)oc1C`, the IC50 [34] was 51.9 µM (inactive), the IC50 [35] was > 80 µM (inactive) and the IC50 [36] was > 80 µM (inactive).
